Measured values reported in patent US12324814B2, “Manganese composition for enhancing immunity” (PEKING UNIVERSITY, priority 2019, dated 2025).

Assays:
melanoma B16-F10 = test: Subcutaneous B16-F10 melanoma, manganese colloid with cyclophosphamide; assay type: in vivo, mice; conditions: 14 days after inoculation; colloid 5 mg/kg i.m. every two days; CTX 140 mg/kg i.p. day 6, 9, 12
influenza virus = test system: influenza virus; design: species or system mice; conditions: mouse, in vivo
[1] = 20 μg manganese i.m. in 100 μl saline
Protocol: The mice were randomly divided into 2 groups according to body weight, namely: intramuscular injection of MnCl2 solution group (20 μg MnCl2 dissolved in 100 μl saline), and intramuscular injection of manganese colloid group (20 μg manganese colloid suspended in 100 μl saline). 20 μg here refers to the mass of the element manganese. At different times after the injection, 0.1 g of the muscle at the injection site was taken, digested with a microwave digestion apparatus, and then the content of the element manganese was determined by ICP-MS (Thermo X SERIES II).

[2] = test system: mouse peritoneal macrophages; assay type: cell-based
[3] = test system: inflammatory factors IL-1β and IL-18; assay type: cell-based, mouse
IL-1β = test: Induction of inflammatory factor IL-1β by manganese products; assay type: cell-based; conditions: FIG. 2B
Protocol: Each of the products was tested.

B16/OVA melanoma cells = test: B16/OVA melanoma subcutaneous in situ tumor model after immunization; assay type: in vivo, mice; conditions: 21 days after tumor inoculation; immunized three times with OVA ± adjuvant
Source text: The mice were randomly divided into 4 groups according to body weight: blank control group (con), OVA control group, OVA and manganese colloid group (OVA+Mn), and OVA and aluminum adjuvant group (OVA+Al). After immunizing the mice three times according to the experimental scheme (once every 7 days), the B16/OVA melanoma cells were subcutaneously inoculated to establish an in situ tumor model. […] 21 days after tumor inoculation, the average tumor size of mice in the control group was 1906 mm^3, the average tumor size of mice in the OVA group was 925.5 mm^3, the average tumor size of mice immunized with manganese colloid was 222.9 mm^3, and the average tumor size of mice in the aluminum adjuvant group was 1946 mm^3, as shown in FIG. 14B.

B16-OVA tumor = test: B16-OVA tail vein tumor metastasis model after immunization; assay type: in vivo, mice; conditions: 21 days after tumor injection
Protocol: Mn2OHPO4 colloid and aluminum adjuvant were mixed respectively with antigen OVA to immunize mice. Immunizations were performed 3 times with once every 7 days to activate the immune response in the body. B16-OVA tumor was injected into the tail vein to establish a tumor metastasis model. The mice were sacrificed 21 days after the tumor injection, and the lung tissues were taken out.

Work on `O=P1(N(CCCl)CCCl)NCCCO1` (stereo not shown) [CTX, cyclophosphamide monohydrate] yielded a tumor size (melanoma B16-F10) of 393.9 mm^3.

For CTB, the “inflammation in the lungs” value (influenza virus) was “a small amount of inflammation in lung” and the “weight of the mice after influenza infection” value (influenza virus) was “recovered slightly after a slight weight loss”.

For `[Cl][Mn][Cl]` [MnCl2], the “retention at the injection site (manganese content in muscle)” value [1] was “quickly metabolized”, the “expression of type I interferon (ISG54, Viperin, total type I interferon in supernatant)” value [2] was “can activate the expression of type I interferon” and the “ability to activate inflammatory factors (caspase 1 and IL-1β cleavage, IL-1β and IL-18)” value [3] was “significantly stronger than that of aluminum adjuvant”. For the same molecule, the “ability to activate inflammatory factors in NLRP3 knockout cells” value [3] was “significantly lowered” and the “ability to activate inflammatory factors, MnCl2 compared with manganese colloid” value (IL-1β) was “have the same ability to activate inflammatory factors”.

B1: OVA: ovalbumin antigen (InvivoGen, #vac-pova), given without adjuvant (protein, UniProt P01012 2-386, looked up)
Ovalbumin: GSIGAASMEFCFDVFKELKVHHANENIFYCPIAIMSALAMVYLGAKDSTRTQINKVVRFDKLPGFGDSIEAQCGTSVNVHSSLRDILNQITKPNDVYSFSLASRLYAEERYPILPEYLQCVKELYRGGLEPINFQTAADQARELINSWVESQTNGIIRNVLQPSSVDSQTAMVLVNAIVFKGLWEKAFKDEDTQAMPFRVTEQESKPVQMMYQIGLFRVASMASEKMKILELPFASGTMSMLVLLPDEVSGLEQLESIINFEKLTEWTSSNVMEERKIKVYLPRMKMEEKYNLTSVLMAMGITDVFSSSANLSGISSAESLKISQAVHAAHAEINEAGREVVGSAEAGVDAASVSEEFRADHPFLFCIKHIATNAVLFFGRCVSP
In the case of B1, the average tumor size (B16/OVA melanoma cells) is reported as 925.5 mm^3 and the “melanomas on the lungs” value (B16-OVA tumor) is reported as “a certain number of melanomas”.
